Where two headings read alike, the source gives them in different places. A value given as a limit tells only on which side of the number the result lay.

A word on the IC50: it is the concentration at which inhibition is half-maximal. Read a high IC50 as weaker potency. As usually defined, the LC50 is the concentration lethal to half of the exposed cells or organisms. A word on the GI50: it is the concentration that inhibits growth by half.

Holding throughout (type): cell-based
In data set [1] the test system is U266 cells. Briefly: Cell viability assay, antiproliferative activity. The conditions noted are these: Homo sapiens, U-266; U266, 72 h. The text has this:
Compounds 10n and 10e were next evaluated for antiproliferation in multiple myeloma (U266) cells. Multiple myeloma, also known as plasma cell myeloma, is a malignant haematological disease characterised by the proliferation of clonal plasma cells predominantly in the bone marrow. U266 cells are considered to be the least sensitive multiple myeloma cells to nucleoside drug cladribine compared to RPMI8226 and MM1.S cells.
The human breast carcinoma cell line MCF-7 was purchased from the European Collection of Animal Cell Cultures (ECACC). Triple negative breast cancer Hs578T cells and its invasive variant Hs578Ts(i)8 were a kind gift from Dr. Susan McDonnell, School of Chemical and Bioprocess Engineering, University College Dublin. U266 cells were a gift from Dr. Tony McElligott, School of Medicine, St James’s Hospital, Trinity College Dublin. HT-29 cells were purchased from the European Collection of Cell Cultures (originating from a human adenocarcinoma of the colon). The human breast carcinoma cell line MDA-MB-231 and the HL-60 cells derived from a patient with acute myeloid leukaemia were both obtained from ECACC (Salisbury, UK). The SW-480 cells were a kind gift from Dr. Brian Flood, School of Biochemistry and Immunology, Trinity College Dublin. HEK-293T (normal epithelial embryonic kidney cells) were cultured in Dulbecco’s Modified Eagle’s Medium (DMEM) with GlutaMAXTM-I in the absence of non-essential amino acids. […] Cell numbers were monitored using a haemocytometer. […]
A stock solution of each β-lactam compound was prepared (10 mM) and serial […] dilutions were made with ethanol for compounds to have working dilutions of 1 nM, 10 nM, 100 nM, 500 nM, 1µM, 5 µM, 10 µM and 50 µM. […] Solubilisation was commenced by the addition of DMSO ([…]) and the cells were maintained at 20 °C in the dark for 20 min before reading the absorbance to ensure complete colour diffusion. […]

Data set [2] can be described thus: NCI 60 cell line screen, full panel. The conditions noted are these: human. From the text:
(§1) The novel 3-haloazetidinone compounds 10e, 11n and 16d were selected by NCI for further biological evaluation in the NCI 60 cell line screen following an initial Tier 1 profiling screen. […]. these values were in the sub-micromolar range for all the cell lines tested except for the breast cancer cell line T-47D, where the progesterone receptors are not regulated by estradiol. […]. [table]

The subject of data set [3] is NCI 60 cell line panel. Put plainly: NCI 60 cell line screen, full panel. The conditions noted are these: for GI50: Homo sapiens; for LC50: read-out: LC50 (mean over NCI 60 panel).
From the text: as §1

The test system of data set [4] is A549/ATCC. Briefly: NCI-60 5 dose screen, NSC Lung Cancer. The conditions noted are these: Homo sapiens.
Data set [5] relates to SF-268. Put plainly: NCI-60 5 dose screen, CNS Cancer. The conditions noted are these: Homo sapiens.
Data set [6] concerns PC-3. Briefly: NCI-60 5 dose screen, Prostate cancer. The conditions noted are these: Homo sapiens.
Data set [7] has as its system MDA-MB-231/ATCC. Briefly: NCI-60 5 dose screen, Breast Cancer. The conditions noted are these: Homo sapiens.
Data set [8] relates to MDA-MB-468. Put plainly: NCI-60 5 dose screen, Breast Cancer. Particulars: Homo sapiens.
The mark [9] stands for this setting: NCI 60 cancer cell line panel (mean over the panel), NCI 60 panel mean, read-out: LC50 (mean over NCI 60 panel).
Where [10] appears, read: 60 cell, NCI 60 panel mean, read-out: GI50 (mean over NCI 60 panel).
Where [11] appears, read: 60 cell, NCI 60 panel mean, read-out: MID GI50 (full panel mean-graph mid-point).
[12] abbreviates: MDA-MB-231/ATCC, read-out: GI50.

`COc1ccc([C@H]2[C@H](Cl)C(=O)N2c2cc(OC)c(OC)c(OC)c2)cc1` (relative stereo) [Compound 10e trans, Trans-3-chloro-1-(3,4,5-trimethoxyphenyl)-4-(4-methoxyphenyl) azetidin-2-one] registered a half-maximal inhibitory concentration (IC50) in data set [1] of 77 ± 20 nM. In addition, the LC50 in data set [2] (setting [9]) is 81300 nM; in data set [2] (NCI 60 cancer cell line panel, individual cell lines, all but one cell line for 10e, all but four cell lines for 11n, read-out: LC50 in individual cell lines), greater than 100000 nM; in data set [3] (NCI 60 panel mean, listed as 10e), 91200 nM. The 50% growth inhibitory concentration (GI50) in data set [3] (setting [10]) is 74.1 nM; in data set [3] (setting [11]), 74.1 nM; in data set [4] (A549/ATCC, read-out: GI50), 78.5 nM; in data set [5] (read-out: GI50), 158 nM; in data set [6] (read-out: GI50), 44.1 nM; in data set [7] (setting [12]), 68.6 nM. Moreover, the GI50 in data set [8] (read-out: GI50) is 50.8 nM.

On to `COc1ccc(C2C(Cl)C(=O)N2c2cc(OC)c(OC)c(OC)c2)cc1O` (stereo not drawn) [Compound 10n, 3-Chloro-4-(3-hydroxy-4-methoxy-phenyl)-1-(3,4,5-trimethoxyphenyl)azetidin-2-one], for which the IC50 in data set [1] stood at 31 ± 10 nM.

In the case of `COc1ccc(C2N(c3cc(OC)c(OC)c(OC)c3)C(=O)C2(Cl)Cl)cc1O` (stereo not drawn) [Compound 11n, 3,3-Dichloro-4-(3-hydroxy-4-methoxyphenyl)-1-(3,4,5-trimethoxyphenyl)azetidin-2-one], the LC50 is 91200 nM in data set [2] (NCI 60 panel mean, read-out: LC50 (mean over NCI 60 panel)); greater than 100000 nM in data set [2] (all but one cell line for 10e, all but four cell lines for 11n, read-out: LC50 in individual cell lines); 83200 nM in data set [3] (NCI 60 panel mean). The concentration for 50% growth inhibition (GI50) in data set [3] (60 cell, read-out: GI50 (mean over NCI 60 panel), NCI 60 panel mean) is 53.7 nM; in data set [3] (60 cell, read-out: GI50 in individual cell lines, 43 of the cell lines investigated) it was less than 100 nM; in data set [3] (60 cell, read-out: GI50 value, CNS cancer cell lines) it was 19.9 to 51.4 nM; in data set [3] (60 cell, read-out: GI50 value, non-small cell lung cancer cell lines), 16.4 to 46.4 nM; in data set [3] (60 cell, read-out: GI50 value, prostate cancer cell lines), 35.3 to 35.9 nM; in data set [3] (60 cell, read-out: MID GI50 (full panel mean-graph mid-point), NCI 60 panel mean), 53.7 nM. Also, the GI50 was 22.6 to 42.8 nM in data set [3] (read-out: GI50 value, breast cancer cell lines apart from T-47D); 38.2 nM in data set [4] (A549); 51.4 nM in data set [5]; 35.3 nM in data set [6]; 31.6 nM in data set [7] (MDA-MB-231); 22.6 nM in data set [8]. In data set [3] (NCI 60 panel mean), the “TGI (mean over NCI 60 panel)” value worked out at 10000 nM.

On to `CCSc1ccc(C2C(Br)C(=O)N2c2cc(OC)c(OC)c(OC)c2)cc1` (stereo not drawn) [Compound 16d, 3-Bromo-4-(4-(ethylthio)phenyl)-1-(3,4,5-trimethoxyphenyl)azetidin-2-one], for which the values for the LC50 in data set [2] (setting [9]) and in data set [3] (NCI 60 panel mean) were 83200 nM and 81300 nM, respectively. The GI50 in data set [3] (setting [11]) amounted to 407 nM; in data set [4] (A549/ATCC, read-out: GI50) it was 598 nM; in data set [5] (read-out: GI50), 1180 nM; in data set [6] (read-out: GI50), 297 nM; in data set [7] (setting [12]), 488 nM; in data set [8] (read-out: GI50), 154 nM.

Turning to `COc1ccc(/C=C\c2cc(OC)c(OC)c(OC)c2)cc1O` [CA-4, Combretastatin A-4], the concentration for half-maximal inhibition (IC50) in data set [1] amounted to 35 ± 10 nM. In data set [3] (setting [10]), the GI50 came to 99 nM. Further, the “TGI (mean over NCI 60 panel)” value in data set [3] (NCI 60 panel mean) was 10300 nM.
